Where “and” joins values, the source holds several entries; their conditions need not be identical. Equal values may be shown once. Read-outs that look alike come from different tables or passages of the source. Non-standard residues stand in square brackets, D forms with d. Residues, ends and D or L forms follow the SMILES beside them. dDab = NCC[C@@H](N)C(=O)O
Columns and labels:
[1] = system: clinical isolates of Pseudomonas aeruginosa; assay type: cell-based; settings: geometric mean, 6 clinical isolates of P. aeruginosa
Protocol: (§2) Measurement of Antimicrobial Activity (MIC): The minimal inhibitory concentration (MIC) is defined as the lowest peptide concentration that inhibited bacterial growth. MICs were measured by a standard microtiter dilution method in Mueller Hinton (MH) medium. Briefly, cells were grown overnight at 37° C. in MH broth and were diluted in the same medium. […] The plates were incubated at 37° C. for 24 h, and the MICs were determined.

Hemolytic activity = assay type: cell-based, human; settings: 1% human erythrocytes (red blood cells), pH 7.4
Protocol: (§1) Hemoglobin release was determined spectrophotometrically at 570 nm. […] […] […] With the peptides used in this study the inventors used the HC30/MIC ratio value to calculate the therapeutic index.

human red blood cells = experiment: Hemolytic activity; assay type: cell-based; settings: for HC50: 50% hemolysis of human red blood cells after 18 hours at 37° C.
Protocol: as §1

[2] = system: A. baumannii clinical isolates; experiment: MIC, microtiter dilution in Mueller Hinton medium; assay type: cell-based; settings: geometric mean, 7 clinical isolates of A. baumannii
Excerpt: (§3) Gram-Negative Bacterial Strains used in this Study: All the A. baumannii strains used in this study were 1) obtained from the collection of Dr. Anthony A. Campagnari at the University of Buffalo and originally isolated from different patients and organs/tissues (strain 649, blood; strain 689, groin; strain 759, gluteus; strain 884, axilla; strain 985, pleural fluid); 2) were purchased from the American Type Culture Collection (ATCC, Manassas, Va., USA) (strain ATCC 17978, fatal meningitis; and strain ATCC 19606, urine); 3) obtained from MERCK (M89941, M89949, M89951, M89952, M89953, M89955 and M89963). These seven A. baumannii strains were resistant to polymyxin B and polymyxin E (Colistin).
as §2

[3] = system: A. baumannii strains resistant to Polymyxin B and Colistin; assay type: cell-based; settings: geometric mean, 7 A. baumannii strains resistant to polymyxin B and colistin
Excerpt: as §3, §2

[4] = RP-HPLC retention time as measure of overall peptide hydrophobicity; assay type: physicochemical; settings: Zorbax SB-C8, 0.5% B/min from 2% B, 30° C. (Table 3)
Excerpt: Retention behavior in RP-HPLC is an excellent method to represent overall peptide hydrophobicity. Retention times of peptides are highly sensitive to the conformational status of the peptides upon interaction with the hydrophobic environment of the column matrix (Jiang, Z., et al., Chem. Biol. Drug Des. 2011; Chen, Y., et al., J. Peptide Research 2002, supra). The non-polar faces of amphipathic alpha-helical and amphipathic cyclic beta-sheet peptides represent a preferred binding domain for interaction with the hydrophobic matrix of the reversed-phase column (Zhou, N. E., et al., Peptide Research 1990, 3:8-20). In this study, the observed peptide hydrophobicity was determined by RP-HPLC retention time as described in the methods section and are relative hydrophobicities because they are dependent on the TFA concentration and organic solvent in the mobile phase, gradient rate, temperature, flow rate and the column used. […]

[5] = 50% hemolysis of human red blood cells after 18 hours at 37° C., read-out: HC50

SMILES	MICGM [1]	HC50 at 18 h (Hemolytic activity; [5])	HC50 (human red blood cells)	MICGM [2]	MICGM [3]	HC50 at 18 h (Hemolytic activity; human)	Hemolysis of human red blood cells, in words (human red blood cells)	tR, relative hydrophilicity/hydrophobicity [4]
CC(=O)N[C@H](C)C(=O)N[C@H](CC(C)C)C(=O)N[C@H](CCCCN)C(=O)N[C@H](CCCCN)C(=O)N[C@H](CC(C)C)C(=O)N[C@H](CC(C)C)C(=O)N[C@H](CCCCN)C(=O)N[C@@H](C(=O)N[C@H](CC(C)C)C(=O)N[C@H](CO)C(=O)N[C@H](CCCCN)C(=O)N[C@H](C)C(=O)N[C@H](CCCN)C(=O)N[C@H](C)C(=O)N[C@H](C)C(=O)N[C@H](CCCN)C(=O)N[C@H](CC(C)C)C(=O)N[C@H](CCCCN)C(=O)N[C@@H](C(=O)N[C@H](CC(C)C)C(=O)N[C@H](CC(C)C)C(=O)N[C@H](CCCCN)C(=O)N[C@H](C)C(=O)N[C@H](CC(C)C)C(=O)N[C@H](CO)C(=O)N[C@H](CCCCN)C(N)=O)[C@H](C)O)[C@H](C)O [D41(Orn13/Orn16)]	1.0 µM	34 µM and 96 µg/mL	34.0 µM	0.8 µM	0.6 µM			
CC(=O)N[C@H](C)C(=O)N[C@H](CC(C)C)C(=O)N[C@H](CCCCN)C(=O)N[C@H](CCCCN)C(=O)N[C@H](CC(C)C)C(=O)N[C@H](CC(C)C)C(=O)N[C@H](CCCCN)C(=O)N[C@@H](C(=O)N[C@H](CC(C)C)C(=O)N[C@H](CO)C(=O)N[C@H](CCCCN)C(=O)N[C@H](C)C(=O)N[C@H](CCN)C(=O)N[C@H](C)C(=O)N[C@H](C)C(=O)N[C@H](CCN)C(=O)N[C@H](CC(C)C)C(=O)N[C@H](CCCCN)C(=O)N[C@@H](C(=O)N[C@H](CC(C)C)C(=O)N[C@H](CC(C)C)C(=O)N[C@H](CCCCN)C(=O)N[C@H](C)C(=O)N[C@H](CC(C)C)C(=O)N[C@H](CO)C(=O)N[C@H](CCCCN)C(N)=O)[C@H](C)O)[C@H](C)O [D41(Dbu13/Dbu16)] (Ac-[dA][dL][dK][dK][dL][dL][dK][dT][dL][dS][dK][dA][dDab][dA][dA][dDab][dL][dK][dT][dL][dL][dK][dA][dL][dS][dK]-NH2; N-terminus and C-terminus assumed)	0.8 µM	24.3 µM and 68 µg/mL	24.3 µM	0.6 µM	0.5 µM			
CC(=O)N[C@H](C)C(=O)N[C@H](CC(C)C)C(=O)N[C@H](CCCCN)C(=O)N[C@H](CCCCN)C(=O)N[C@H](CC(C)C)C(=O)N[C@H](CC(C)C)C(=O)N[C@H](CCCCN)C(=O)N[C@@H](C(=O)N[C@H](CC(C)C)C(=O)N[C@H](CO)C(=O)N[C@H](CCCCN)C(=O)N[C@H](C)C(=O)N[C@H](CN)C(=O)N[C@H](C)C(=O)N[C@H](C)C(=O)N[C@H](CN)C(=O)N[C@H](CC(C)C)C(=O)N[C@H](CCCCN)C(=O)N[C@@H](C(=O)N[C@H](CC(C)C)C(=O)N[C@H](CC(C)C)C(=O)N[C@H](CCCCN)C(=O)N[C@H](C)C(=O)N[C@H](CC(C)C)C(=O)N[C@H](CO)C(=O)N[C@H](CCCCN)C(N)=O)[C@H](C)O)[C@H](C)O [D41(Dpr13/Dpr16)]	1.3 µM	22.6 µM and 62.5 µg/mL	22.6 µM	0.6 µM	0.7 µM			
CC(=O)N[C@H](C)C(=O)N[C@H](CC(C)C)C(=O)N[C@H](CCCCN)C(=O)N[C@H](CCCCN)C(=O)N[C@H](CC(C)C)C(=O)N[C@H](CC(C)C)C(=O)N[C@H](CCCCN)C(=O)N[C@@H](C(=O)N[C@H](CC(C)C)C(=O)N[C@H](CO)C(=O)N[C@H](CCCCN)C(=O)N[C@H](C)C(=O)N[C@H](CCCCN)C(=O)N[C@H](C)C(=O)N[C@H](C)C(=O)N[C@H](CCCCN)C(=O)N[C@H](CC(C)C)C(=O)N[C@H](CCCCN)C(=O)N[C@@H](C(=O)N[C@H](CC(C)C)C(=O)N[C@H](CC(C)C)C(=O)N[C@H](CCCCN)C(=O)N[C@H](C)C(=O)N[C@H](CC(C)C)C(=O)N[C@H](CO)C(=O)N[C@H](CCCCN)C(N)=O)[C@H](C)O)[C@H](C)O [D41(Lys13/Lys16)]	0.8 µM	13.7 µM and 39 µg/mL	13.7 µM	0.4 µM	0.4 µM			
CC(=O)N[C@H](CCCCN)C(=O)N[C@H](CC(C)C)C(=O)N[C@H](CCN)C(=O)N[C@H](CO)C(=O)N[C@H](CC(C)C)C(=O)N[C@H](CC(C)C)C(=O)N[C@H](CCN)C(=O)N[C@@H](C(=O)N[C@H](CC(C)C)C(=O)N[C@H](CO)C(=O)N[C@H](C)C(=O)N[C@H](C)C(=O)N[C@H](CCCCN)C(=O)N[C@H](CCN)C(=O)N[C@H](CCN)C(=O)N[C@H](CCCCN)C(=O)N[C@H](CC(C)C)C(=O)N[C@H](C)C(=O)N[C@@H](C(=O)N[C@H](CC(C)C)C(=O)N[C@H](CC(C)C)C(=O)N[C@H](CCN)C(=O)N[C@H](C)C(=O)N[C@H](CC(C)C)C(=O)N[C@H](CO)C(=O)N[C@H](CO)C(N)=O)[C@H](C)O)[C@H](C)O [Peptide D104, Ac-KL(Dbu)SLL(Dbu)TLSAAK(Dbu)(Dbu)KLATLL(Dbu)ALSS-amide] (Ac-[dK][dL][dDab][dS][dL][dL][dDab][dT][dL][dS][dA][dA][dK][dDab][dDab][dK][dL][dA][dT][dL][dL][dDab][dA][dL][dS][dS]-NH2)						> 4000 µg/mL and > 1.49 mM	basically no hemolysis	59.2 min
CC(=O)N[C@H](C)C(=O)N[C@H](CC(C)C)C(=O)N[C@H](CCCCN)C(=O)N[C@H](CCCCN)C(=O)N[C@H](CC(C)C)C(=O)N[C@H](CC(C)C)C(=O)N[C@H](CCCCN)C(=O)N[C@@H](C(=O)N[C@H](CC(C)C)C(=O)N[C@H](CO)C(=O)N[C@H](CCCCN)C(=O)N[C@H](C)C(=O)N[C@H](CCCNC(=N)N)C(=O)N[C@H](C)C(=O)N[C@H](C)C(=O)N[C@H](CCCNC(=N)N)C(=O)N[C@H](CC(C)C)C(=O)N[C@H](CCCCN)C(=O)N[C@@H](C(=O)N[C@H](CC(C)C)C(=O)N[C@H](CC(C)C)C(=O)N[C@H](CCCCN)C(=O)N[C@H](C)C(=O)N[C@H](CC(C)C)C(=O)N[C@H](CO)C(=O)N[C@H](CCCCN)C(N)=O)[C@H](C)O)[C@H](C)O [D41(Arg13/Arg16)]	1.1 µM	7.2 µM and 21 µg/mL	7.2 µM	0.6 µM	0.8 µM			
